What was measured:
[1] = test system: mouse embryos; assay: Live imaging of chromosome segregation dynamics in H2B:RFP-expressing embryos; assay type: cell-based; conditions: for change in mitosis duration: 10 nM nocodazole
Method: (§1) Embryo collection, culture and chemical treatments. All experiments were approved by the Centre de Recherche du Centre Hospitalier de l'Université de Montréal (CRCHUM) Comité Institutionnel de Protection des Animaux (CIPA). Two-cell embryos were obtained from superovulated 2-3-month-old CD-1 female mice mated with CD-1 males. Embryos were collected in M2 media and cultured in KSOM media drops covered in mineral oil at 37° C. in 5% CO2. For chemical treatments, media was supplemented with the following compounds: AZ3146 (20 μM), GSK923295 (various concentrations), nocodazole (various concentrations), Cytochalasin B (5 μg/ml), MG132 (25 μM), proTAME (various concentrations). All drug stocks are dissolved in DMSO. For experiments involving proTAME, embryos were cultured without oil in 500 μL of media in 4-well plates.
(§2) All imaging was performed on a Leica™ SP8 confocal microscope with HyD detectors. For live imaging embryos were placed in a heated top-stage incubator with CO2 supply and imaged with a 20×0.75 NA objective as previously described (Vázquez-Diez et al., 2016). All imaging was performed in ˜2 μL drops under mineral oil, for experiments involving proTAME, embryos were cultured in Ibidi micro-insert wells mounted on a glass-bottom dish with distilled water and the inventors' setup was modified to provide humidified CO2 gas supply, previously described in extensive detail (Vázquez-Diez et al., 2018).
(§3) Z-stack images of embryos (˜50 μm) with step size 2 μm were obtained at a time interval of 30 sec for experiments concerning H2BRFP only, 2 min for H2B:RFP-GAP43:GFP, and 3 min H2B:RFP-Mad1:EGFP experiments. For live-cell experiments at two-cells, eight cell, morula and blastocyst, imaging was started at ˜48 h, 72 h, 84 h and ˜96 h post-hCG administration and mating, respectively. For immunofluorescence embryos were fixed in 2% PFA in PBS (20 min) and permeabilised in 0.25% Triton™ X-100 in PBS (10 min), for Mad2 immunofluorescence embryos were fixed for 15 min in PHEM buffer containing 2% PFA and 0.05% Triton™ X-100, and permeabilised in 0.05% Triton™ X in PHEM buffer for 15 min. Blocking was performed in 3% bovine serum albumin in PBS, for 1 hr at 37° C. or overnight at 4° C. Primary antibodies used were rabbit anti-Mad2 (1:300), mouse anti-alpha-Tubulin (1:1000), anti-rabbit and anti-mouse AlexaFluor secondaries were used at 1:1000 dilution. Alexa-555-Phalloidin (1:300) and Hoechst (1:1000) were used to visualize F-actin and DNA, respectively. Briefly, immunofluorescence confocal imaging was performed on a Leica™ SP8 microscope using a 63×1.4 NA oil objective lens, using a 1.5 μm optical section and acquiring Z-stacks with a step size of 1.5 μm, described in more detail in (Vázquez-Diez et al., 2018). In fixed-cell experiments involving GSK923295 and nocodazole embryos were exposed from the 8-cell stage, ˜72 h post-hCG and mating for ˜16 h and immediately fixed. Blastocyst immunofluorescence analysis was performed at late blastocyst stage, ˜120 h post-hCG.
(§4) All image analysis was performed using Fiji software. Time-lapse Z-stacks were examined to determine mitosis duration and identify chromosome alignment and segregation errors. Spindle length measurements were performed measuring the distance between spindle poles, using Pythagoras' theorem where spindle poles were located on different Z-slices. Mad2 Immunofluorescence was quantified by subtracting nuclear envelope and background maximum grey values. To calculate cell volume for each cell at metaphase, areas delineated by the cell membrane (GAP43:GFP signal) were manually traced and measured at each Z-slice, the sum of the areas was multiplied by the step size (2 μm). All data analysis was performed using GraphPad™ Prism, statistical test used were accordingly noted in figures, α=0.05.

[2] = test system: mouse embryos; assay: Fixed-cell analysis of embryos after ~16 h exposure from the 8-cell stage (mitotic index, misaligned chromosomes, Mad2); assay type: cell-based; conditions: for metaphase cells with multiple misaligned chromosomes: morulae, 16 hour exposure
Method: as §1, §3, §4

[3] = test system: mouse embryos; assay: Live imaging of H2B:RFP and Mad1:EGFP-expressing embryos; assay type: cell-based; conditions: 500 nM GSK923295
Method: (§5) All micromanipulations were performed on a Leica™ DM14000 inverted microscope fitted with Narashige micromanipulators. […] Embryos where thoroughly washed in over a dozen drops of M2 media prior to transfer and incubation in equilibrated KSOM medium for at least 2 hours prior to imaging to allow them to recover from the cytoplasmic removal procedure. Microinjections were performed as described previously (Nakagawa and FitzHarris, 2016; Vázquez-Diez and FitzHarris, 2018; Vázquez-Diez et al., 2016). cRNA was synthesized using mMessenger Machine kit (Ambion) as previously (Nakagawa et al., 2017; Vázquez-Diez et al., 2018), from the following plasmids; pRN4-H2B:RFP, psC2-GAP43:GFP, MajSatTALE:mClover (pTALYM3B15)(Miyanari et al., 2013).
as §2, with “2018). […]” for “2018).”

[4] = test system: mouse embryos; assay: Cytoplasmic removal and live imaging of H2B:RFP-GAP43:GFP embryos (mitosis duration vs cell volume); assay type: cell-based; conditions: 10 nM nocodazole, un-manipulated or cytoplasmically reduced
Method: as §5
All imaging was performed on a Leica™ SP8 confocal microscope with HyD detectors. For live imaging embryos were placed in a heated top-stage incubator with CO2 supply and imaged with a 20×0.75 NA objective as previously described (Vázquez-Diez et al., 2016). […]
All image analysis was performed using Fiji software. […] Mad2 Immunofluorescence was quantified by subtracting nuclear envelope and background maximum grey values. To calculate cell volume for each cell at metaphase, areas delineated by the cell membrane (GAP43:GFP signal) were manually traced and measured at each Z-slice, the sum of the areas was multiplied by the step size (2 μm). […]

[5] = test system: mouse embryos; assay: Culture to blastocyst and immunofluorescence analysis (development, cell numbers, micronuclei per cell); assay type: cell-based; conditions: for number of micronuclei compared to controls: P<0.01; for micronuclei per cell in blastocyst: 2-cell stage to blastocyst, controls 0.022, P<0.05
Method: as §1, §3, §4

[6] = test system: oocytes; assay: Polar body extrusion (PBE) of meiosis-I in microinjected oocytes; assay type: cell-based, mouse; conditions: oocytes microinjected with Mad2 MO vs Control MO
[7] = 500 nM GSK923295, 8-16 cell transition
[8] = proTAME 0.01 nM-100 nM from the 2-cell stage

## CC(C)Oc1ccc(C(=O)N[C@H](CNC(=O)CN(C)C)Cc2ccc(-c3cn4cccc([C@H](C)O)c4n3)cc2)cc1Cl [GSK923295]
[1]; [7]
  number of severely misaligned chromosomes at anaphase onset (span, all cases): at least one, and as many as nine
  severely misaligned chromosomes at anaphase onset (mean): 3.6±0.3 per cell
[1]; 500 nM GSK, eight- to sixteen-cell division
  NEBD to metaphase and metaphase to anaphase times: extended
[2]; 500 nM GSK923295
  mitotic index: 23%
  metaphase cells with multiple misaligned chromosomes: 93%
[2]; 1 μM nocodazole + 500 nM GSK923295, 16 hr
  mitotic arrest with simultaneous nocodazole: mounted a robust mitotic arrest
[2]; 5 μM GSK923295
  mitotic index: 12%
  metaphase cells with multiple misaligned chromosomes: 100%
[3]
  misaligned chromosomes at anaphase onset harbouring Mad1:GFP at kinetochores: 80%
[3]; H2B:RFP and Mad1:EGFP-expressing embryos
  misaligned chromosomes at anaphase onset (mean): 3.5±0.4 per cell

## COC(=O)Nc1nc2ccc(C(=O)c3cccs3)cc2[nH]1 [nocodazole]
[1]; blastocysts (~32-64 cell stage)
  change in mitosis duration: prolonged mitosis appreciably
[1]; morulae (8-16 cell stage)
  change in mitosis duration: only a minimal extension of mitosis
[1]; two-cell stage
  change in mitosis duration: prolonged mitosis appreciably
[1]; nocodazole-treated (10 nM) morulae
  Anaphase lagging chromosomes: 19 % of divisions
[2]; 100 nM nocodazole, 16-hour exposure
  mitotic index: 40%
[2]; 1 μM nocodazole, 16-hour exposure
  mitotic index: 95%
[2]; nocodazole-treated cells
  Mad2 at kinetochores: Mad2 was evident at kinetochores
[4]; morulae
  change in mitosis duration: not in morulae
[4]; two-cell stage
  change in mitosis duration: extended mitosis at the two-cell stage

## Mad2 MO: morpholino oligonucleotide against Mad2, 5′-GCTCTCGGGCGAGCTGCTGTGCCAT-3′ (Gene tools LLC) (all phosphorodiamidate morpholino (PMO))
[5]; Mad2 MO microinjected
  blastocyst cell numbers: Neither treatment prevented development to blastocyst or altered cell numbers
  development to blastocyst: Neither treatment prevented development to blastocyst
[5]; Mad2 MO-injected embryos vs Control MO
  number of micronuclei compared to controls: doubled
[6]
  timing of meiosis-I (polar body extrusion): characteristic acceleration of meiosis-I

## COC(=O)[C@H](CCCN/C(=N\C(=O)OCOC(=O)Cc1ccccc1)NC(=O)OCOC(=O)Cc1ccccc1)NS(=O)(=O)c1ccc(C)cc1 [proTAME]
[1]; 10 nM proTAME vs DMSO
  extension of mitosis duration: 19%
  increase in duration of mitosis: ~10 min
[1]; 10 nM proTAME, control 28%, P=0.025
  incidence of misaligned chromosomes at anaphase onset: 16%
[1]; 10 nM proTAME, morula stage, control 51.7±1.4, P<0.0001
  duration of mitosis: 61.7 ± 2.3 min
[5]; 10 nM proTAME
  micronuclei per cell in blastocyst: 0.013 micronuclei per cell
[5]; "nM" proTAME (figure missing)
  micronuclei per cell in blastocyst: 0.012 micronuclei per cell
[5]; [8]
  blastocyst cell number: did not affect blastocyst cell number
  embryo development to blastocyst: permissive of development to blastocyst
[5]; proTAME 1-10 μM from the 2-cell stage
  embryo development to blastocyst: prevented embryo development to blastocyst

## AZ3146
[1]; 20 μM AZ3146, 16-32C transition, control 53±3 mins, P<0.0001
  duration of mitosis: 33 ± 1 min
[1]; 20 μM AZ3146, control 24%, P<0.0001
  chromosomes remaining misaligned at anaphase onset: 63%
[5]; AZ3146 (20 μM)
  blastocyst cell numbers: Neither treatment prevented development to blastocyst or altered cell numbers
  development to blastocyst: Neither treatment prevented development to blastocyst
[5]; AZ3146-treated embryos
  number of micronuclei compared to controls: doubled
[2]; 100 nM nocodazole and 20 μM AZ3146
  reversal of nocodazole-induced mitotic arrest: the arrest was reversible

## Cc1ncc([N+](=O)[O-])n1CCOC(=O)NC(Nc1ncccn1)C(Cl)(Cl)Cl (stereo not drawn) [APCin]
[5]; APCin 10 μM
  micronuclei: reduction in micronuclei
